Results from US7932283B2, “Fungicide N-cyclopropyl-sulfonylamide derivatives” (Bayer Cropscience AG, priority 2006, dated 2011).

Assay: logP by HPLC on reversed-phase column (C 18), EEC Directive 79/B31 Annex V.A8, methods A and B
Assay type: physicochemical
Details: reversed-phase HPLC column (C 18), linear gradient 10% to 90% acetonitrile
Description: Calibration was carried out using unbranched alkan-2-ones (having 3 to 16 carbon atoms) with known logP values (determination of the logP values by the retention times using linear interpolation between two successive alkanones).

[1] = LogP method A: HPLC reversed-phase C 18, 43° C., 0.1% aqueous phosphoric acid / acetonitrile
[2] = LogP method B: HPLC reversed-phase C 18, 40° C., 0.1% aqueous formic acid / acetonitrile

Row | SMILES | chromatographic logP [1] | chromatographic logP [2]
1 | Cc1nn(C)c(F)c1C(=O)N(C1CC1)S(=O)(=O)c1cnc(O)c(Br)c1 [Compound 447] | 3.08 | –
2 | COc1nn(C)cc1C(=O)N(C1CC1)S(=O)(=O)c1cnc(O)c(Br)c1 [Compound 449] | – | 2
3 | COc1nn(C)cc1C(=O)N(C1CC1)S(=O)(=O)c1ccc(Oc2ccc(C)nc2)cc1Br [Compound 458] | – | 2
4 | COc1nn(C)cc1C(=O)N(C1CC1)S(=O)(=O)c1ccc(F)cc1Br [Compound 459] | – | 2.2
5 | COc1nn(C)cc1C(=O)N(C1CC1)S(=O)(=O)c1ccccc1C(F)(F)F [Compound 460] | – | 2.3
6 | COc1nn(C)cc1C(=O)N(C1CC1)S(=O)(=O)c1c(O)cc(Cl)cc1O [Compound 461] | – | 2.7
7 | COc1ccc(Oc2ccc(S(=O)(=O)N(C(=O)c3cn(C)nc3OC)C3CC3)c(Br)c2)cc1OC [Compound 462] | – | 2.9
8 | COc1ccc(Oc2ccc(S(=O)(=O)N(C(=O)c3cn(C)nc3OC)C3CC3)c(Br)c2)cc1 [Compound 463] | – | 3.3
9 | COc1nn(C)cc1C(=O)N(C1CC1)S(=O)(=O)c1ccc(Oc2ccccc2)cc1Br [Compound 464] | – | 3.3
10 | COc1nn(C)cc1C(=O)N(C1CC1)S(=O)(=O)c1ccc(Oc2ccccc2O)cc1Br [Compound 465] | – | 3.5
11 | COc1nn(C)cc1C(=O)N(C1CC1)S(=O)(=O)c1ccc(Oc2cccc(N(C)C)c2)cc1Br [Compound 466] | – | 3.5
12 | COc1nn(C)cc1C(=O)N(C1CC1)S(=O)(=O)c1ccc(Oc2ccc(C)cc2)cc1Br [Compound 467] | – | 3.7
13 | COc1nn(C)cc1C(=O)N(C1CC1)S(=O)(=O)c1ccc(Oc2cccc(O)c2)cc1Br [Compound 468] | – | 3.7
14 | COc1nn(C)cc1C(=O)N(C1CC1)S(=O)(=O)c1ccc(Oc2ccc(Cl)cc2)cc1Br [Compound 469] | – | 3.8
15 | COc1nn(C)cc1C(=O)N(C1CC1)S(=O)(=O)c1ccc(Oc2ccc(C)c(O)c2)cc1Br [Compound 470] | – | 3.8
16 | COc1nn(C)cc1C(=O)N(C1CC1)S(=O)(=O)c1ccc(Oc2cccc(C(F)(F)F)c2F)cc1Br [Compound 471] | – | 3.8
17 | COc1nn(C)cc1C(=O)N(C1CC1)S(=O)(=O)c1ccc(Oc2cccc(C(F)(F)F)c2)cc1Br [Compound 472] | – | 3.8
18 | COc1nn(C)cc1C(=O)N(C1CC1)S(=O)(=O)c1ccc(Oc2cccc(Br)c2)cc1Br [Compound 473] | – | 3.8
19 | COc1nn(C)cc1C(=O)N(C1CC1)S(=O)(=O)c1ccc(Oc2ccc(Br)cc2)cc1Br [Compound 474] | – | 3.9
20 | COc1nn(C)cc1C(=O)N(C1CC1)S(=O)(=O)c1ccc(Oc2ccc(C(F)(F)F)cc2)cc1Br [Compound 475] | – | 3.9
21 | COc1nn(C)cc1C(=O)N(C1CC1)S(=O)(=O)c1ccc(Oc2cccc(OC(F)(F)F)c2)cc1Br [Compound 476] | – | 4
22 | COc1nn(C)cc1C(=O)N(C1CC1)S(=O)(=O)c1ccc(Oc2ccc(O)cc2Cl)cc1Br [Compound 477] | – | 4.1
23 | COc1nn(C)cc1C(=O)N(C1CC1)S(=O)(=O)c1ccc(Oc2ccc(O)c(O)c2)cc1Br [Compound 478] | – | 4.2
24 | COc1nn(C)cc1C(=O)N(C1CC1)S(=O)(=O)c1ccc(Oc2ccc(Cl)c(C(F)(F)F)c2)cc1Br [Compound 479] | – | 4.2

Row | SMILES | chromatographic logP [1] | chromatographic logP [2]
25 | COc1nn(C)cc1C(=O)N(C1CC1)S(=O)(=O)c1ccc(Oc2ccc(Br)c(O)c2)cc1Br [Compound 480] | – | 4.2
26 | COc1nn(C)cc1C(=O)N(C1CC1)S(=O)(=O)c1ccc(Oc2cc(O)cc(O)c2)cc1Br [Compound 481] | – | 4.3
27 | CCCCCc1ccc(Oc2ccc(S(=O)(=O)N(C(=O)c3cn(C)nc3OC)C3CC3)c(Br)c2)cc1 [Compound 482] | – | 5.4
28 | CCOc1nn(C)cc1C(=O)N(C1CC1)S(=O)(=O)c1ccc(Oc2ccc(C)cc2)cc1Cl [Compound 525] | – | 2.2
29 | CCOc1nn(C)cc1C(=O)N(C1CC1)S(=O)(=O)c1ccc(Oc2ccc(C)nc2)cc1Br [Compound 526] | – | 2.3
30 | CCOc1nn(C)cc1C(=O)N(C1CC1)S(=O)(=O)c1ccc(Oc2ccc(OC)c(OC)c2)cc1O [Compound 527] | – | 3.2
31 | CCOc1nn(C)cc1C(=O)N(C1CC1)S(=O)(=O)c1ccc(Oc2ccc(OC)cc2)cc1O [Compound 529] | – | 3.5
32 | CCOc1nn(C)cc1C(=O)N(C1CC1)S(=O)(=O)c1ccc(OC2=CC(N(C)C)=CCC2)cc1O [Compound 532] | – | 3.8
33 | CCOc1nn(C)cc1C(=O)N(C1CC1)S(=O)(=O)c1ccc(Oc2cccc(O)c2)cc1O [Compound 534] | – | 3.9
34 | CCOc1nn(C)cc1C(=O)N(C1CC1)S(=O)(=O)C1C=CC(Oc2ccc(F)c(O)c2)=CC1O (centres unmarked) [Compound 536] | – | 4
35 | CCOc1nn(C)cc1C(=O)N(C1CC1)S(=O)(=O)c1ccc(Oc2ccccc2O)c(O)c1 [Compound 537] | – | 4.1
36 | CCOc1nn(C)cc1C(=O)N(C1CC1)S(=O)(=O)c1ccc(Oc2cccc(Br)c2)cc1Br [Compound 540] | – | 4.2
37 | CCOc1nn(C)cc1C(=O)N(C1CC1)S(=O)(=O)c1ccc(Oc2ccc(Br)cc2)cc1Br [Compound 541] | – | 4.2
38 | CCOc1nn(C)cc1C(=O)N(C1CC1)S(=O)(=O)c1ccc(Oc2ccc(O)cc2Cl)cc1O [Compound 543] | – | 4.3
39 | CCOc1nn(C)cc1C(=O)N(C1CC1)S(=O)(=O)C1C=CC(Oc2ccc(Br)c(O)c2)=CC1O (centres unmarked) [Compound 544] | – | 4.3
40 | CCOc1nn(C)cc1C(=O)N(C1CC1)S(=O)(=O)C1C=CC(Oc2cccc(C(F)(F)F)c2)=C(O)C1 (centres unmarked) [Compound 549] | – | 4.4
41 | CCOc1nn(C)cc1C(=O)N(C1CC1)S(=O)(=O)c1ccc(Oc2ccc(Cl)c(C(F)(F)F)c2)cc1Br [Compound 553] | – | 4.5
42 | CCCCCc1ccc(Oc2ccc(S(=O)(=O)N(C(=O)c3cn(C)nc3OCC)C3CC3)c(Br)c2)cc1 [Compound 560] | – | 5.6
43 | Cc1nn(C)c(C(=O)N(C2CC2)S(=O)(=O)c2cccc(O)c2O)c1Cl [Compound 586] | – | 3.7
44 | Cc1noc(C)c1C(=O)N(C1CC1)S(=O)(=O)c1ccc(C(F)(F)F)cc1 [Compound 588] | 3.46 | –
45 | CCc1onc(C(C)C)c1C(=O)N(C1CC1)S(=O)(=O)c1cccc(O)c1 [Compound 589] | 4.18 | –
46 | CCc1onc(C(C)C)c1C(=O)N(C1CC1)S(=O)(=O)c1ccc(C(F)(F)F)cc1 [Compound 590] | 4.37 | –
47 | Cc1noc(C)c1C(=O)N(C1CC1)S(=O)(=O)c1ccc(O)c(O)c1 [Compound 591] | 3.72 | –
48 | Cc1noc(C)c1C(=O)N(C1CC1)S(=O)(=O)c1ccc(O)cc1O [Compound 592] | 3.41 | –

Row | SMILES | chromatographic logP [1] | chromatographic logP [2]
49 | Cc1noc(C)c1C(=O)N(C1CC1)S(=O)(=O)c1ccc(C(C)(C)C)cc1 [Compound 593] | 4.03 | –
50 | CCc1onc(C(C)C)c1C(=O)N(C1CC1)S(=O)(=O)c1ccc(O)c(C(F)(F)F)c1 [Compound 594] | 4.82 | –
51 | CCc1onc(C(C)C)c1C(=O)N(C1CC1)S(=O)(=O)c1ccc(O)c(O)c1 [Compound 595] | 4.77 | –
52 | CCc1onc(C(C)C)c1C(=O)N(C1CC1)S(=O)(=O)c1ccc(O)cc1O [Compound 596] | 4.41 | –
53 | CCc1onc(C(C)C)c1C(=O)N(C1CC1)S(=O)(=O)c1ccc(C(C)(C)C)cc1 [Compound 597] | 4.98 | –
54 | Cc1nocc1C(=O)N(C1CC1)S(=O)(=O)c1cccc(O)c1O [Compound 599] | – | 3
55 | Cc1nocc1C(=O)N(C1CC1)S(=O)(=O)c1ccc(O)c(O)c1O [Compound 600] | – | 3.6
56 | Cc1nocc1C(=O)N(C1CC1)S(=O)(=O)c1ccc(Oc2ccccc2)cc1 [Compound 601] | – | 3.7
57 | Cc1nocc1C(=O)N(C1CC1)S(=O)(=O)c1ccc(Oc2ccc(Br)cc2)cc1 [Compound 602] | – | 4.2
58 | Cc1oncc1C(=O)N(C1CC1)S(=O)(=O)c1cccc(O)c1O [Compound 603] | – | 2.2
59 | Cc1oncc1C(=O)N(C1CC1)S(=O)(=O)c1ccc(O)c(O)c1O [Compound 604] | – | 2.6
60 | Cc1oncc1C(=O)N(C1CC1)S(=O)(=O)c1ccc(Oc2ccc(Br)cc2)cc1 [Compound 605] | – | 3.4
61 | Cc1oncc1C(=O)N(C1CC1)S(=O)(=O)c1ccc(Oc2ccccc2)cc1 [Compound 606] | – | 3.7
62 | Cn1nc(C(=O)N(C2CC2)S(=O)(=O)c2ccccc2O)n(C)c1=O [Compound 608] | 1.97 | –
63 | COCCn1c(C)c(C(=O)N(C2CC2)S(=O)(=O)c2cccc(O)c2)sc1=O [Compound 609] | 2.01 | –
64 | COCCn1c(C)c(C(=O)N(C2CC2)S(=O)(=O)c2ccc(C(F)(F)F)cc2)sc1=O [Compound 610] | 2.01 | –
65 | Cc1c(C(=O)N(C2CC2)S(=O)(=O)c2cccc(Cl)c2)sc(=O)n1C [Compound 611] | 1.01 | –
66 | Cc1c(C(=O)N(C2CC2)S(=O)(=O)c2ccc(C(F)(F)F)cc2)sc(=O)n1C [Compound 612] | 2.01 | –
67 | Cc1c(C(=O)N(C2CC2)S(=O)(=O)c2cccc(O)c2)sc(=O)n1Cc1ccccc1 [Compound 613] | 2.01 | –
68 | Cc1c(C(=O)N(C2CC2)S(=O)(=O)c2ccc(C(F)(F)F)cc2)sc(=O)n1Cc1ccccc1 [Compound 614] | 4.08 | –
69 | CCc1c(C(=O)N(C2CC2)S(=O)(=O)c2cccc(O)c2)sc(=O)n1C1CC1 [Compound 615] | 2.01 | –
70 | CCc1c(C(=O)N(C2CC2)S(=O)(=O)c2ccc(C(F)(F)F)cc2)sc(=O)n1C1CC1 [Compound 616] | 2.01 | –
71 | CC(C)c1c(C(=O)N(C2CC2)S(=O)(=O)c2cccc(O)c2)sc(=O)n1C1CC1 [Compound 617] | 2.01 | –
